Here are results for 24 compounds from patent US20230000870A1, “METHODS OF TREATING CANCER IN BIOMARKER-IDENTIFIED PATIENTS WITH INHIBITORS OF CYCLIN-DEPENDENT KINASE 7 (CDK7)” (Syros Pharmaceuticals, Inc., priority 2019, published 2023).

Assay [1] concerns the target CDK7/Cyclin H/MAT1 complex (Homo sapiens, UniProt P50613). The assay is described as follows: CDK7 kinase inhibition assay (Caliper/LabChip EZ Reader). Type of assay: biochemical. The conditions noted are these: CDK7/Cyclin H/MAT1 6 nM, ATP 2 mM, 35 min at 27° C. Summed up:
(§1)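 Incubation times were set for ~20% (±5%) peptide phosphorylation by uninhibited enzyme: CDK7 35 min, CDK2 35 min (0.5 nM complex, 2 μM 5-FAM-CDK7tide, 2 mM MgCl2), CDK12 3 hr (50 nM, 2 μM 5-FAM-CDK9tide, 2 mM MgCl2), CDK9 15 min (8 nM, 2 μM 5-FAM-CDK9tide, 10 mM MgCl2). Read-out on LabChip EZ Reader, 27° C.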

For assay [2], the target named is T1, CDK12 (aa686-1082)/Cyclin K complex (Homo sapiens, UniProt Q9NYV4).
T1 construct: CDK12 (aa686-1082)/Cyclin K complex
As to the kind of experiment: CDK12 kinase inhibition assay (Caliper/LabChip EZ Reader). Format: biochemical. The conditions noted are these: CDK12 (aa686-1082)/Cyclin K 50 nM, ATP 2 mM, 3 hr at 27° C. Summed up: as §1

Assay [3] has as its target CDK9/Cyclin T1 complex (Homo sapiens, UniProt P50750). As to the kind of experiment: CDK9 kinase inhibition assay (Caliper/LabChip EZ Reader). Format: biochemical. The conditions noted are these: CDK9/Cyclin T1 8 nM, ATP 2 mM, 15 min at 27° C. Summed up: as §1
Assay [4] has as its system A673 cells. The assay is described as follows: Inhibition of proliferation of A673 cells (CyQUANT, 72 hour). Format: cell-based, human. The conditions noted are these: read-out: Inhibition of Proliferation of A673 Cells (calculated IC50). Summed up: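 Read-out is CyQUANT after a 72 h proliferation period, following the kit protocol. Dilution series in 0.5-log steps over the stated 4 μM to […] range. Cells are A673 (human Ewing's sarcoma), grown in DMEM with 10% FBS and 1 mM sodium pyruvate at 37 °C under 5% CO2.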

In assay [5] the target is CDK2/Cyclin E1 complex (Homo sapiens, UniProt P24941). As to the kind of experiment: CDK2 kinase inhibition assay (Caliper/LabChip EZ Reader). Format: biochemical. The conditions noted are these: CDK2/Cyclin E1 0.5 nM, ATP 2 mM, 35 min at 27° C. Summed up:
as §1

Assay [6] has as its system HCC70 cells. As to the kind of experiment: Inhibition of proliferation of HCC70 cells (CyQUANT Direct, 72 hour). Format: cell-based, human. The conditions noted are these: read-out: Inhibition of Proliferation of HCC70 Cells (calculated IC50). Summed up: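 Anti-proliferative effect measured with the CyQUANT Direct kit after a 72 h exposure at 37 °C, 5% CO2. Compounds were tested at 0.5 log serial dilutions spanning 4–[…] on HCC70 triple-negative breast cancer cells cultured in RPMI-1640 with 10% FBS.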

Some results are limits rather than exact numbers.

T1 sequence (Q9NYV4 686-1082): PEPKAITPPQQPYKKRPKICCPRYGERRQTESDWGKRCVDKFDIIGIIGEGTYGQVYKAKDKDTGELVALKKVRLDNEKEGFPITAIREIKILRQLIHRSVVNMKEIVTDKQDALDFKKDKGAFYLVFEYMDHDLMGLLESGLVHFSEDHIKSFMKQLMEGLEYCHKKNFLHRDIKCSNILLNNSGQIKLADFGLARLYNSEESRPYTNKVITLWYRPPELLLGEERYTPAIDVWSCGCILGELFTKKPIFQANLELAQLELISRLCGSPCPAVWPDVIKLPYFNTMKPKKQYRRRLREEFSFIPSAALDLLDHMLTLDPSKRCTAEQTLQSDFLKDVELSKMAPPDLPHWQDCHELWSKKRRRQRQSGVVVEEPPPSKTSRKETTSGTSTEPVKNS
T1 sequence (O75909 whole entry partner, the tested form may be a part): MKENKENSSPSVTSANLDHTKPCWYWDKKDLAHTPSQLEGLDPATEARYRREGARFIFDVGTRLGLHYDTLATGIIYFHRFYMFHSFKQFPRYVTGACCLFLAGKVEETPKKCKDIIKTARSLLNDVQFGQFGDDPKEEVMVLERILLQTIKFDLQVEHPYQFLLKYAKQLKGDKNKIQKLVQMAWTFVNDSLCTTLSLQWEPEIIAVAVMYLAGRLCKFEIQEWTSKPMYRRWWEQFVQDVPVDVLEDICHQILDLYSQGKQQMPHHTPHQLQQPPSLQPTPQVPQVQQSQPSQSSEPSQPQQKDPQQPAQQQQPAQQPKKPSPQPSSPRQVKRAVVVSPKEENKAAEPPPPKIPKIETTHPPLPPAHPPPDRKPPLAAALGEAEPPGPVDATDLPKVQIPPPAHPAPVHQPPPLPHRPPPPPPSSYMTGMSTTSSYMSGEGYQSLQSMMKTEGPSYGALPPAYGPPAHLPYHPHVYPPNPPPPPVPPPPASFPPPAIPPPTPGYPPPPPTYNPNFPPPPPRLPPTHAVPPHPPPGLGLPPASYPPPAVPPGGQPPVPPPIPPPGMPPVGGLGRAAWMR
Chain of CDK7/Cyclin H/MAT1 complex (P50613 whole entry): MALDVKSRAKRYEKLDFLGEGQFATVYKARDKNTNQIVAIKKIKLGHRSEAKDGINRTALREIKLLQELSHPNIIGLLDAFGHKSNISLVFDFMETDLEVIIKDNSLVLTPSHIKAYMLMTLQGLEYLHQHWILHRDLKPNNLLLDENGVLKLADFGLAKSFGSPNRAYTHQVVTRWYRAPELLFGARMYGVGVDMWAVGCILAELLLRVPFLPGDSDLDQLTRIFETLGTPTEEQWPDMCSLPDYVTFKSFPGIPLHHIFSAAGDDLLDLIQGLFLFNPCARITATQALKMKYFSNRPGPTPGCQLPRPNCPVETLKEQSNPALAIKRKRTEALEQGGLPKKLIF
Chain of CDK7/Cyclin H/MAT1 complex (P51946 whole entry partner): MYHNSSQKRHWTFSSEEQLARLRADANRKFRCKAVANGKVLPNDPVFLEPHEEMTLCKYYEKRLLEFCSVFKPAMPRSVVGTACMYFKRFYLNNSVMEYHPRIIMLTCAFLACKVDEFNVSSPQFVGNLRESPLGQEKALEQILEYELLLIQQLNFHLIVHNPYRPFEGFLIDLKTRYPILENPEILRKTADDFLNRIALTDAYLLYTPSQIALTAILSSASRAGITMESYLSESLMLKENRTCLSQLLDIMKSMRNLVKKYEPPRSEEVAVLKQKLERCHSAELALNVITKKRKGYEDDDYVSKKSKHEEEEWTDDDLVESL
Chain of CDK7/Cyclin H/MAT1 complex (P51948 whole entry partner): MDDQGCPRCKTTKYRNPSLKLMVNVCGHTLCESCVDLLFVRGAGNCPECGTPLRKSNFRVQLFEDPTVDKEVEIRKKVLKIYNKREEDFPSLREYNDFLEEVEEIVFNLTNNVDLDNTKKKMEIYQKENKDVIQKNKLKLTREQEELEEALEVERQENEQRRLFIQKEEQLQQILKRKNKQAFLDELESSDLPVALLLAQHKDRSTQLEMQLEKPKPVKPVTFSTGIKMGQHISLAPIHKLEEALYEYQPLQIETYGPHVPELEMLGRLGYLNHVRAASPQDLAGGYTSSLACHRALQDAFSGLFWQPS
Chain of CDK9/Cyclin T1 complex (P50750 whole entry): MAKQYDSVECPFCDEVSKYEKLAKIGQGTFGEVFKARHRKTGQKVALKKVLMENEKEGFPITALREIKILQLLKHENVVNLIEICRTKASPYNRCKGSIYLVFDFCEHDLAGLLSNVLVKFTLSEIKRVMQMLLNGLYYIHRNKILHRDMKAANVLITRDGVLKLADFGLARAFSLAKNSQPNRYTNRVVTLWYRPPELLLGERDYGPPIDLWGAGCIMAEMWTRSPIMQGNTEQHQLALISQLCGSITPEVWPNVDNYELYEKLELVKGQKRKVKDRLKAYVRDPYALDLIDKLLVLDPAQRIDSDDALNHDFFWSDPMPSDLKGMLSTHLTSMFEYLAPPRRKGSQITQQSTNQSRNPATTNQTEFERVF
Chain of CDK9/Cyclin T1 complex (O60563 whole entry partner): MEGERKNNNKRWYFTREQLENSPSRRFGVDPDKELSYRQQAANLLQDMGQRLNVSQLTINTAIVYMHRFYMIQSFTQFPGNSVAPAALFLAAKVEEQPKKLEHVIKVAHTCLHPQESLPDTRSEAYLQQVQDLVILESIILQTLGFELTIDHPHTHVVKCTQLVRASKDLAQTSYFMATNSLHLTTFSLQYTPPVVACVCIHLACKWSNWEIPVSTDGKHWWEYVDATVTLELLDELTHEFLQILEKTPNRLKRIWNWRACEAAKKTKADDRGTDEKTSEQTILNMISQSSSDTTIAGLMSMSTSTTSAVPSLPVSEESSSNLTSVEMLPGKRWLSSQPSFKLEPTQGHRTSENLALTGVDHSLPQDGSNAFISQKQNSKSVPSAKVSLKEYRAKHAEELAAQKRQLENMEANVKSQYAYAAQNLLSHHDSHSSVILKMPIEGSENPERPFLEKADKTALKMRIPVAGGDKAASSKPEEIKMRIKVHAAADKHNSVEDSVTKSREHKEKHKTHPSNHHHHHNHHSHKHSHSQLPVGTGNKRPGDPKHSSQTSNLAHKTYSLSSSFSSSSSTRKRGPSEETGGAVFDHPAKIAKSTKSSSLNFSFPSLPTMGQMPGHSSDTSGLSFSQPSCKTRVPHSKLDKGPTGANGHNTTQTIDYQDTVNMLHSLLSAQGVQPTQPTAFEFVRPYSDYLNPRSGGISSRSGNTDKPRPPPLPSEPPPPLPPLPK

On to `FC(F)(F)c1cnc(NC2CCCNC2)nc1-c1n[nH]c2ccccc12` (centres unmarked) [Compound 103], for which the IC50 is below 20 nM in assay [1]; 20 to 200 nM in assay [2]; 200 to 5000 nM in assay [3]; 20 to 200 nM in assay [4]; 200 to 5000 nM in assay [5]; below 100 nM in assay [6].
As to `Clc1cnc(NC2CCCNC2)nc1-c1cnn2ccccc12` (centres unmarked) [Compound 104], the IC50 in assay [1] was 20 to 200 nM; in assay [2], 20 to 200 nM; in assay [3] it was 200 to 5000 nM; in assay [4] it was 20 to 200 nM; in assay [5], 200 to 5000 nM; in assay [6], 100 to 1000 nM.
In the case of `Fc1cccc2c(-c3nc(NC4CCCNC4)ncc3Cl)c[nH]c12` (centres unmarked) [Compound 107], the IC50 in assay [1] is 20 to 200 nM; in assay [2] it was 20 to 200 nM; in assay [3] it was 200 to 5000 nM; in assay [4], below 20 nM; in assay [5] it was 200 to 5000 nM; in assay [6], 100 to 1000 nM.
For the compound `Fc1ccc2[nH]cc(-c3nc(NC4CCCNC4)ncc3Cl)c2c1` (centres unmarked) [Compound 109], the IC50 in assay [1] was below 20 nM; in assay [2], 20 to 200 nM; in assay [3], 200 to 5000 nM; in assay [4], 20 to 200 nM; in assay [5] it was 200 to 5000 nM; in assay [6] it was 100 to 1000 nM.
On to `Cc1cccc2c(-c3nc(NC4CCCNC4)ncc3Cl)c[nH]c12` (centres unmarked) [Compound 112], for which the IC50 was below 20 nM in assay [1]; 20 to 200 nM in assay [2]; 200 to 5000 nM in assay [3]; below 20 nM in assay [4]; 200 to 5000 nM in assay [5]; below 100 nM in assay [6].
For `Clc1cnc(NC2CCCNC2)nc1-c1c[nH]c2ncccc12` (centres unmarked) [Compound 118], the IC50 in assay [1] was below 20 nM; in assay [2], 20 to 200 nM; in assay [3] it was 200 to 5000 nM; in assay [4] it was 20 to 200 nM; in assay [5], 200 to 5000 nM; in assay [6] it was below 100 nM.
As for `CC(C)c1cnc(NC2CCCNC2)nc1-c1c[nH]c2ccccc12` (centres unmarked) [Compound 139], the IC50 in assay [1] was 20 to 200 nM; in assay [2], at least 5000 nM; in assay [3], at least 5000 nM; in assay [4], 200 to 5000 nM; in assay [5] it was at least 5000 nM; in assay [6], 1000 to 5000 nM.
In the case of `CS(=O)(=O)c1cccc2c(-c3nc(NC4CCCNC4)ncc3C(F)(F)F)c[nH]c12` (centres unmarked) [Compound 141], the IC50 in assay [1] was below 20 nM; in assay [2], 200 to 5000 nM; in assay [3], 200 to 5000 nM; in assay [4], below 20 nM; in assay [5], 200 to 5000 nM; in assay [6], below 100 nM.
Regarding `Cn1cc(-c2nc(NC3CCCNC3)ncc2C(F)(F)F)c2ccc(C#N)nc21` (centres unmarked) [Compound 273], the IC50 in assay [4] is 200 to 5000 nM; in assay [6], 1000 to 5000 nM.
For the compound `N#Cc1ccc2c(-c3nc(NC4CNCC(F)C4)ncc3C(F)(F)F)c[nH]c2c1` (centres unmarked) [Compound 368], the IC50 in assay [1] was 20 to 200 nM; in assay [2], 200 to 5000 nM; in assay [3], at least 5000 nM; in assay [5], at least 5000 nM; in assay [6] it was 1000 to 5000 nM.
Take `CCN1CC(Nc2ncc(C(F)(F)F)c(-c3c[nH]c4cc(S(C)(=O)=O)ccc34)n2)CC(C)(C)C1` (centres unmarked) [Compound 369]: the IC50 was 20 to 200 nM in assay [1]; at least 5000 nM in assay [2]; at least 5000 nM in assay [3]; at least 5000 nM in assay [5]; 100 to 1000 nM in assay [6].
As to `N#Cc1ccc2c(-c3nc(N[C@@H]4CNC[C@H](O)C4)ncc3C(F)(F)F)c[nH]c2c1` [Compound 370], the IC50 in assay [1] was 20 to 200 nM; in assay [2], 200 to 5000 nM; in assay [3], at least 5000 nM; in assay [5], at least 5000 nM; in assay [6], 100 to 1000 nM.
On to `CN(C)S(=O)(=O)c1cccc2c(-c3nc(NC4CCCNC4)ncc3C(F)(F)F)c[nH]c12` (centres unmarked) [Compound 371], for which the IC50 in assay [1] is below 20 nM; in assay [2] it was 200 to 5000 nM; in assay [3] it was 200 to 5000 nM; in assay [5], 200 to 5000 nM; in assay [6], below 100 nM.
In the case of `CC1CCNCC1Nc1ncc(C(F)(F)F)c(-c2c[nH]c3ccccc23)n1` (centres unmarked) [Compound 372], the IC50 is 20 to 200 nM in assay [1]; 200 to 5000 nM in assay [2]; 200 to 5000 nM in assay [3]; 200 to 5000 nM in assay [5]; 100 to 1000 nM in assay [6].
Turning to `CC1CCNCC1Nc1ncc(C(F)(F)F)c(-c2c[nH]c3ccccc23)n1` (centres unmarked) [Compound 373], the IC50 in assay [1] was 20 to 200 nM; in assay [2] it was at least 5000 nM; in assay [3] it was at least 5000 nM; in assay [5], at least 5000 nM; in assay [6] it was 1000 to 5000 nM.
For `FC(F)Sc1ccc2c(-c3nc(NC4CCCNC4)ncc3C(F)(F)F)c[nH]c2c1` (centres unmarked) [Compound 374], the IC50 in assay [1] is below 20 nM; in assay [2], 20 to 200 nM; in assay [3], 200 to 5000 nM; in assay [5], 200 to 5000 nM; in assay [6], below 100 nM.
Take `O=S(=O)(c1ccc2c(-c3nc(NC4CCCNC4)ncc3C(F)(F)F)c[nH]c2c1)C(F)F` (centres unmarked) [Compound 375]: the IC50 in assay [1] was below 20 nM; in assay [2], 200 to 5000 nM; in assay [3] it was 200 to 5000 nM; in assay [5], 200 to 5000 nM; in assay [6] it was 100 to 1000 nM.
Take `CC1(C)CNC[C@@H](Nc2ncc(C(F)(F)F)c(-c3c[nH]c4cc(S(C)(=O)=O)ccc34)n2)C1` [Compound 376]: the IC50 in assay [1] is 20 to 200 nM; in assay [2], 200 to 5000 nM; in assay [3] it was at least 5000 nM; in assay [5], 200 to 5000 nM; in assay [6], 100 to 1000 nM.
As to `N#Cc1ccc2c(-c3nc(N[C@@H]4CCC5(CCC5)NC4)ncc3C(F)(F)F)c[nH]c2c1` [Compound 377], the IC50 in assay [1] was below 20 nM; in assay [2] it was 200 to 5000 nM; in assay [3], 200 to 5000 nM; in assay [5] it was at least 5000 nM; in assay [6], 100 to 1000 nM.
Regarding `N#Cc1ccc2c(-c3nc(N[C@H]4CCC5(CCC5)NC4)ncc3C(F)(F)F)c[nH]c2c1` [Compound 378], the IC50 is 20 to 200 nM in assay [1]; at least 5000 nM in assay [2]; at least 5000 nM in assay [3]; at least 5000 nM in assay [5]; 1000 to 5000 nM in assay [6].
For the compound `CCP(=O)(CC)c1ccc2c(-c3nc(NC4CCCNC4)ncc3C(F)(F)F)c[nH]c2c1` (centres unmarked) [Compound 379], the IC50 is 20 to 200 nM in assay [1]; at least 5000 nM in assay [2]; at least 5000 nM in assay [3]; at least 5000 nM in assay [5]; 1000 to 5000 nM in assay [6].
For the compound `[O-][S+](c1ccc2c(-c3nc(NC4CCCNC4)ncc3C(F)(F)F)c[nH]c2c1)C(F)F` (centres unmarked) [Compound 380], the IC50 in assay [1] was below 20 nM; in assay [2], 200 to 5000 nM; in assay [3], 200 to 5000 nM; in assay [5], 200 to 5000 nM; in assay [6], below 100 nM.
For `CS(=O)(=O)c1ccc2c(-c3nc(NC4CCCN(C5CC5)C4)ncc3C(F)(F)F)c[nH]c2c1` (centres unmarked) [Compound 381], the IC50 in assay [1] was 20 to 200 nM; in assay [2], 200 to 5000 nM; in assay [3], at least 5000 nM; in assay [5], at least 5000 nM; in assay [6] it was 1000 to 5000 nM.
For `CC1(C)CNCC(Nc2ncc(Cl)c(-c3c[nH]c4c(S(C)(=O)=O)c(C#N)ccc34)n2)C1` (centres unmarked) [Compound 382], the IC50 is below 20 nM in assay [1]; 200 to 5000 nM in assay [2]; 200 to 5000 nM in assay [3]; 200 to 5000 nM in assay [5]; below 100 nM in assay [6].
